Where “and” joins values, the source holds several entries; their conditions need not be identical. Equal entries are not always repeated. Positions of bridges follow the written chain, without caps; N, C: chain ends. No end group written: not given here.

Assay [1] relates to growth hormone (GH) secretion. Put plainly: Growth Hormone Inhibition In Rats (pentobarbital-stimulated GH secretion, serum GH by radioimmunoassay). In kind it is in vivo. The note with it: for GH Serum Conc.: male rats, sodium pentobarbital 4 mg/rat I.P., 20 minutes, Mean ± SEM; for % Inhibition: inhibition of GH release compared to saline controls. On the procedure:
A. Growth Hormone Inhibition In Rats:
This test is a modification of the method of P. Brazeau et al. Endocrinology, 94, 184 (1974). Male rats (weighing 100-110 g.) are divided into three groups of eight rats each. Each rat is administered sodium pentobarbital at a dose of 4 mg/rat (I.P.) to stimulate growth hormone (GH) secretion. Simultaneously, one group of rats receives the test compound (S.C.); the second group receives somatostatin (S.C.); and the third group (control) receives saline (S.C.). Twenty- minutes later, the animals are decapitated and blood samples are collected. The serum concentration of growth hormone (GH) is determined by'radioimmunoassay. The mean GH concentration (+ standard error of the mean) is calculated for each group. The percent inhibition of GH release (as compared to saline controls) is then calculated for the test compound and for somatostatin. When tested as above-described, the peptides of Examples 2, 4, 6, 8 and 10, representative of the peptides of Formula III, gave the results set forth below in Table I: […]

In another assay the test system is insulin. Put plainly: Insulin and Glucagon Inhibition In Dogs (L-alanine stimulation, serum insulin by radioimmunoassay). Type of assay: in vivo, dog. The conditions noted are these: for Result: inhibition of insulin: fasted dog, L-alanine infusion; for inhibition of secretion of insulin: dog stimulated with L-alanine, dose not stated. On the procedure:
(§1) B. Insulin and Glucagon Inhibition In Dogs:
(§2) A normal dog is fasted overnight. An intravenous (I.V.) infusion of the test compound (dissolved in saline) is begun. Thirty minutes thereafter an additional infusion of L-alanine (dissolved in saline) is begun and is continued for a total of 15 minutes so that a total dose of about 1 mmole of L-alanine per kg. body weight is given. Infusion of the test compound is continued for an additional 15 minute period.
(§3) Blood samples are taken periodically before (at -20, -10 and -1 minutes) and after (5, 10, 15, 30, 35, 40, 45, 50, 60, 90, 120 and 150 minutes) the start of the infusion of the test compound. The serum insulin and serum glucagon concentrations in the blood are determined by radioimmunoassay. A plot is made of the glucagon and insulin concentrations versus time. The plot obtained from the test compound is compared to plots obtained from somatostatin and saline (controls) in similar experiments.
(§4) Infusion of L-alanine (in the absence of somatostatin or active test compound) causes an abrupt increase in serum insulin and glucagon concentrations. The concentrations return to basal levels after the L-alanine infusion is terminated. Infusion of somatostatin (alone) causes a decrease in basal serum concentrations of insulin and glucagon.

The next assay relates to glucagon. Put plainly: Insulin and Glucagon Inhibition In Dogs (L-alanine stimulation, serum glucagon by radioimmunoassay). In kind it is in vivo, dog. The note with it: for Result: inhibition of glucagon: fasted dog, L-alanine infusion; for inhibition of secretion of glucagon: dog stimulated with L-alanine, dose not stated. On the procedure: as §1, §2, §3, §4
[2] abbreviates: I.V. infusion dose 0.05 µg/kg/min.
The mark [3] stands for this setting: infusion alone, without L-alanine, dog.
The mark [4] stands for this setting: I.V. infusion dose 0.20 µg/kg/min.
Setting [5] is: I.V. infusion dose 0.06 µg/kg/min.
Where [6] appears, read: I.V. infusion dose 0.098, 0.181, 0.291 µg/kg/min.

Take “D-Alanyl-glycyl-L-cysteinyl-L-lysyl-D-alanyl-L-phenylalanyl-L-phenylalanyl-D-tryptophyl-L-lysyl-L-threonyl-L-cyclohexylalanyl-L-threonyl-L-seryl-D-cysteine cyclic (3 -> 14) disulfide [Example 4]”: in assay [1] (dose 2 µg/kg S.C.), the “GH Serum Conc.” value stood at 5.5 ± 0.7 ng/mL and the “% Inhibition” value worked out at 95%. In assay [1] (dose 50 µg/kg S.C.), the “GH Serum Conc.” value stood at 8.4 ± 3.4 ng/mL and the “% Inhibition” value worked out at 92%. Also, in the assay on insulin (setting [2]), the “Result: inhibition of insulin” value was “No inhibition of glucagon and insulin”. For the same substance, the “inhibition of secretion of insulin” value in the assay with insulin was “did not inhibit”. Further, the “Result: inhibition of glucagon” value in the assay on glucagon (setting [2]) was “No inhibition of glucagon and insulin”. The “inhibition of secretion of glucagon” value in the assay with glucagon was “did not inhibit”.
For “Somatostatin (AGCKNFFWKTFTSC; disulfide 3-14 (inferred); ends not checked; UniProt P61278 103-116, looked up) [reference compound]”, in assay [1] (dose 50 µg/kg S.C.), the “% Inhibition” value is 86.7% and 52.5% and 57.9% and 91% and 93% and 64% and 98%. In addition, in the assay with insulin, the “inhibition of secretion of insulin” value is “inhibits the increase”. In addition, the “basal serum concentration of insulin” value with insulin (setting [3]) is “decrease”. In addition, the “inhibition of secretion of glucagon” value in the assay with glucagon is “inhibits the increase”. Besides, the “basal serum concentration of glucagon” value with glucagon (setting [3]) was “decrease”.
As to “D-Seryl-glycyl-L-cysteinyl-L-lysyl-L-alanyl-L-phenylalanyl-L-phenylalanyl-D-tryptophyl-L-lysyl-L-threonyl-D-phenylalanyl-L-threonyl-L-seryl-D-cysteine cyclic (3 -> 14) 4isulfide [Example 8]”, in assay [1] (dose 2 µg/kg S.C.), the “GH Serum Conc.” value was 79.6 ± 36.2 ng/mL and the “% Inhibition” value was 0%. Also, in assay [1] (dose 50 µg/kg S.C.), the “GH Serum Conc.” value is 40.0 ± 13.4 ng/mL and the “% Inhibition” value is given as 39%. The “Result: inhibition of insulin” value in the assay with insulin (setting [4]) was “No inhibition of glucagon and insulin”. Besides, the “inhibition of secretion of insulin” value with insulin is “did not inhibit”. Besides, in the assay with glucagon (setting [4]), the “Result: inhibition of glucagon” value is “No inhibition of glucagon and insulin”. For the same substance, the “inhibition of secretion of glucagon” value in the assay with glucagon is reported as “did not inhibit”.
For the substance “D-Seryl-glycyl-L-cysteinyl-L-lysyl-L-alanyl-L-phenylalanyl-L-phenylalanyl-D-tryptophyl-L-lysyl-L-threonyl-L-phenylalanyl-L-threonyl-L-seryl-D-cysteine cyclic (3 -> 14) disulfide [Example 6]”, the “GH Serum Conc.” value in assay [1] (dose 2 µg/kg S.C.) stood at 15.5 ± 5.4 ng/mL; in assay [1] (dose 50 µg/kg S.C.) it was 4.0 ± 0.5 ng/mL. In addition, the “% Inhibition” value is 79% in assay [1] (dose 2 µg/kg S.C.) and 95% in assay [1] (dose 50 µg/kg S.C.). For the same substance, in the assay on insulin (setting [2]), the “Result: inhibition of insulin” value was “Significant inhibition of glucagon and insulin”. Moreover, in the assay with glucagon (setting [2]), the “Result: inhibition of glucagon” value was “Significant inhibition of glucagon and insulin”.
With “D-Seryl-glycyl-L-cysteinyl-L-lysyl-L-alanyl-L- phenylalanyl-L-phenylalanyl-D-tryptophyl-L-lysyl-L-threonyl-L-cyclohexylalanyl-L-threonyl-L-seryl-D- cysteine cyclic (3 -> 14) disulfide [Example 10]”, the “GH Serum Conc.” value in assay [1] (dose 2 µg/kg S.C.) turned out to be 68.8 ± 28.2 ng/mL; in assay [1] (dose 50 µg/kg S.C.), 2.2 ± 0.1 ng/mL. Further, the “% Inhibition” value is recorded as 34% in assay [1] (dose 2 µg/kg S.C.) and 98% in assay [1] (dose 50 µg/kg S.C.). Further, the “Result: inhibition of insulin” value in the assay with insulin (setting [5]) is “Partial inhibition of glucagon and insulatum”. The “Result: inhibition of glucagon” value with glucagon (setting [5]) was “Partial inhibition of glucagon and insulatum”.
As to “D-Alanyl-glycyl-L-cysteinyl-L-lysyl-D-alanyl-L-phenylalanyl-L-phenylalanyl-D-tryptophyl-L-lysyl-L-threonyl-L-phenylalanyl-L-threonyl-L-seryl-D-cysteine cyclic (3 -> 14) disulfide [Example 2]”, the “GH Serum Conc.” value in assay [1] (dose 0.25 µg/kg S.C.) is 51.0 ± 14.1 ng/mL; in assay [1] (dose 1 µg/kg S.C.), 30.6 ± 16.0 ng/mL; in assay [1] (dose 2 µg/kg S.C.), 7.1 ± 3.8 ng/mL; in assay [1] (dose 2.5 µg/kg S.C.) it was 14.8 ± 10.9 ng/mL; in assay [1] (dose 25 µg/kg S.C.), 2.8 ± 0.2 ng/mL; in assay [1] (dose 50 µg/kg S.C.) it was 2.0 ± 0.3 ng/mL. Besides, the “% Inhibition” value in assay [1] (dose 0.25 µg/kg S.C.) is listed as 37.4%; in assay [1] (dose 1 µg/kg S.C.) it was 79.8%; in assay [1] (dose 2 µg/kg S.C.), 94.9%; in assay [1] (dose 2.5 µg/kg S.C.), 81.8%; in assay [1] (dose 25 µg/kg S.C.) it was 98.2%; in assay [1] (dose 50 µg/kg S.C.) it was 98.6%. The “Result: inhibition of insulin” value in the assay with insulin (setting [6]) is “No inhibition of glucagon and insulin”. Also, in the assay with insulin, the “inhibition of secretion of insulin” value is “did not inhibit”. For the same substance, in the assay with glucagon (setting [6]), the “Result: inhibition of glucagon” value is “No inhibition of glucagon and insulin”. Moreover, in the assay with glucagon, the “inhibition of secretion of glucagon” value is “did not inhibit”.

Source of the values: patent EP0022621A1, “Peptides related to somatostatin, their preparation and pharmaceutical compositions containing them” (ELI LILLY AND COMPANY, priority 1979, dated 1981).
